Measured values: patent US8871937B2, “8-hydroxy-quinoline derivatives” (“AVIDIN” Kutato, Fejleszto es Kereskedelmi Korlatolt …, priority 2010, dated 2014)

Key:
[1] = system: HepG2 (human hepatocellular carcinoma); assay: MTS cytotoxicity test, HepG2; format: cell-based; settings: HepG2 (liver), read-out: EC50 (concentration where half of the cells died, MTS test)
Method: (§1) In our experiment, HepG2 and Hep3B (human hepatocellular carcinoma), SUM149PT (human breast tumour), K562 (human erythroblastic leukaemia, U87 (human glioma), CCRF-CEM (human leukaemia) cell cultures were used; these were grown in the following medium: U87, CCRF-CEM; Dulbecco's Modified Eagle Medium (D-MEM) (high glucose) (Gibco BRL, Carlsbad, Calif., USA), penicillin (50 IU/ml-streptomycin ([…]), 10% foetal cattle serum.
(§2) 1:1 mixture of HepG2, Hep3B, SUM149PT: Dulbecco's Modified Eagle Medium (D-MEM) (high glucose) (Gibco BRL, Carlsbad, Calif., USA) and Nutrient Mixture F-12 Ham (Sigma, St. Louis, Mo., USA), penicillin (50 IU/ml)-streptomycin ([…]), 10% foetal cattle serum.
(§3) The cells were placed into 96-well microtitration plates (10 000 cells/well), and after 24 hours the cells were incubated with the various substances. After incubation MTS test (3-(4,5-dimethylthiazol-2-yl)-5-(3-carboxymethoxyphenyl)-2-(4-sulphophenyl)-2H-tetrazolium) (Promega, Madison, Wis., USA) was conducted adding it in a final concentration of 0.5 mg/ml to the cells, which were then incubated at 37° C. for 1 hour. The cells were washed with PBS and the formazan dye was dissolved in isopropanol. The amount of the formazan dye transformed was measured by means of a Powerwave reader (Biotek, Winooski, Vt.) at 570 nm; background measurement 690 nm. The calibration curve was obtained in such a way that the capacity of the serial dilutions of the cells to transform MTS was measured and the viable cell count was calculated using Gen5 software.
(§4) In the table the EC50 values of each substance is presented (the concentration where half of the cells died based on the results of the MTS test).

[2] = system: K562 (human erythroblastic leukaemia); assay: MTS cytotoxicity test, K562; format: cell-based; settings: read-out: EC50 (concentration where half of the cells died, MTS test)
Method: as §1, §3, §4

U87 (human glioma) = assay: MTS cytotoxicity test, U87; format: cell-based; settings: U-87 MG, read-out: EC50 (concentration where half of the cells died, MTS test)
Method: as §1, §3, §4

[3] = molecular target: T1, Matrix metalloproteinase 2 (MMP-2, 72 kDa gelatinase) (Rattus norvegicus, UniProt P33436); assay: Gelatinase activity in gel after electrophoresis of H9c2 supernatant (MMP-2); format: biochemical; settings: 30 uM, substance present during incubation of the gel
T1 construct: endogenous in cells; host or cells: H9c2 rat embryonic myocardial cells (culture supernatant)
T1 sequence (P33436 110-662): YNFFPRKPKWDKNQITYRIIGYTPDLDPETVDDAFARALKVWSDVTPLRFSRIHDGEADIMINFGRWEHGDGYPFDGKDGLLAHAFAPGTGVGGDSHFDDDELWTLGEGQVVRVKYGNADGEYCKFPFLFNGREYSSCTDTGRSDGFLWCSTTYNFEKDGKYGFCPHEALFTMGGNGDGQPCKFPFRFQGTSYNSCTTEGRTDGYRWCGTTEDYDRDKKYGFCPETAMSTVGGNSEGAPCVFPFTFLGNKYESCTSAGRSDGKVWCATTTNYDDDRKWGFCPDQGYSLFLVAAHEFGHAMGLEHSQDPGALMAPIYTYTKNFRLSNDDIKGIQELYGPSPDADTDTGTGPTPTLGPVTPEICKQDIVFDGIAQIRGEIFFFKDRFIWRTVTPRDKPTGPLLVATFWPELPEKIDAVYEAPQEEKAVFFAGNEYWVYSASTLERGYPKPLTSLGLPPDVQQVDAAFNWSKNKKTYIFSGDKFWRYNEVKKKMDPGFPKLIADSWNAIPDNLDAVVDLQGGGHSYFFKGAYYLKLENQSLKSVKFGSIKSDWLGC
Method: (§5) H9c2 rat embryonic myocardial cells (from ATCC, Rockville, Md., USA) were grown in Dulbecco's modified eagle's medium containing 10% cattle serum, 4 mM L-glutamine (Sigma-Aldrich, Hungary), 100 IU/ml penicillin and 100 ug/ml streptomycin.

[4] = molecular target: T2, Matrix metalloproteinase 9 (MMP-9, 92 kDa gelatinase) (Rattus norvegicus, UniProt P50282); assay: Gelatinase activity in gel after electrophoresis of H9c2 supernatant (MMP-9); format: biochemical; settings: 30 uM, substance present during incubation of the gel
T2 construct: endogenous in cells; host or cells: H9c2 rat embryonic myocardial cells (culture supernatant)
T2 sequence (P50282 108-708): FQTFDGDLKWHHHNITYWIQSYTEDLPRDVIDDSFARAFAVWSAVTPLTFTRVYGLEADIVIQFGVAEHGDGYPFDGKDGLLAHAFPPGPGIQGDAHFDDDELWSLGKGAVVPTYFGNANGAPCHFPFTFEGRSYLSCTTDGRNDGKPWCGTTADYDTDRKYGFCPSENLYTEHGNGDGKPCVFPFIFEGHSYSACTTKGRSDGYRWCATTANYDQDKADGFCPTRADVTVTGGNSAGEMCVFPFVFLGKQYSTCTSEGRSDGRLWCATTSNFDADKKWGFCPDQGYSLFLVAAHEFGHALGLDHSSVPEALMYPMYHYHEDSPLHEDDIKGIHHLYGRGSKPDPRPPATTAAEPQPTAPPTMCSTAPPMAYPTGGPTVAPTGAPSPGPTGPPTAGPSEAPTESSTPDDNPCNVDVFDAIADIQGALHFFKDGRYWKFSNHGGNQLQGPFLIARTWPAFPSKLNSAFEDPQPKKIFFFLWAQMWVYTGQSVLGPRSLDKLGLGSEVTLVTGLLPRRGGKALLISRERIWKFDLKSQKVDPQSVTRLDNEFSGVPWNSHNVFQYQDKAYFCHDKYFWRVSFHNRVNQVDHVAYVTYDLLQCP
Method: as §5

Lewis rats = assay: Heterotopic heart transplantation, reperfusion injury; format: in vivo, rat; settings: 3 mg/kg
Method: A heterotropic heart transplant experiment model was performed in a way described earlier (Poly(ADP-Ribose): inhibition of polymerase reduces the reperfusion injury occurring after heart transplantation (Szabó et al. 2002) , Briefly: the donor hearts were transplanted from Lewis rats. After ischemic protection performed at 4° C. for 1 hour, the hearts were implanted intraabdominally via anastomising the aorta and the pulmonary artery of the donor heart with the abdominal aorta or vena cava of the recipient rat. Care of all animals was performed by people in line with the requirements of “Principles of Laboratory Animal Care”; National Society of Medical Research, and the Guide for the Care and Use of Laboratory Animals prepared by the National Academy of Sciences; publisher: National Institutes of Health (NIH Publication No. 86-23, revised 1996).
The functional measurements of the transplant were carried out as follows: the left ventricular systolic pressure (LVSP), left ventricular end diastolic pressure (LVEDP), rate of the change of blood pressure (dP/dt) and relaxation time constant (TE) were measured by means of a Millar micromanometer (Millar Instruments, Inc.), with different LV, using an intraventricular ballon. The total coronary blood flow (CBF) was measured on the donor aorta with perivascular ultrasonic flow sample. After determination of the baseline, the endothelium-dependent vasodilator acetylcholine (ACH, 1 nmol/l, 0.2 ml) and bradykinin (BK 0.1 nmol/l, 0.2 ml), and the endothelium-independent vasodilator sodium nitroprussid (SNP, 10 nmol/l, 0.2 ml) were added directly into the coronary arteries of the transplant through the donor aorta. Between the infusions, CBP was allowed to return to the baseline level. The vasodilator response was expressed as the maximum percentage change of CBF from the baseline.
Two transplant groups were studied (n=6/in each group). Just before loosening the aorta clamp, slow injection of common salt solution (control group) or the compound according to Example 1 (3 mg/kg) was started and it was continued during the first 5 minutes of the reperfusion period.
Measurement of the systolic and diastolic function and CBF in group A (control) and group B (compound according to Example 1) was performed 1 hour after reperfusion.

[5] = system: CCRF-CEM (human leukaemia); assay: MTS cytotoxicity test, CCRF-CEM; format: cell-based; settings: read-out: EC50 (concentration where half of the cells died, MTS test)
Method: as §1
CCRF-CEM: RPMI Media 1640 (Gibco BRL, Carlsbad, Calif., USA), penicillin (50 IU/ml-streptomycin ([…]), 10% foetal cattle serum.
as §3, §4

[6] = system: SUM149PT (human breast tumour); assay: MTS cytotoxicity test, SUM149PT; format: cell-based; settings: read-out: EC50 (concentration where half of the cells died, MTS test)
Method: as §1, §2, §3, §4

[7] = system: Hep3B (human hepatocellular carcinoma); assay: MTS cytotoxicity test, Hep3B; format: cell-based; settings: Hep3B (liver), read-out: EC50 (concentration where half of the cells died, MTS test)
Method: as §1, §2, §3, §4

Wistar rats = assay: Forced swimming test; format: in vivo, rat; settings: 30 mg/kg, previous experiments
Method: Wistar rats received from Charles River Laboratories (Budapest, Hungary) were used as test animals. App. 2 month rats were used (200-300 g body weight). The animals were conditioned for app. 1 week. The animals received standard laboratory food (Charles River Laboratories, Budapest, Hungary) and tap water ad libitum. The temperature and humidity were kept at 22±2° C. and 60±10%, respectively. The rats were kept in groups of 5 in 45×35×25 cm Makrolon cages. Day/night cycles of 12 hours were used; the light was switched off at 19:00. The experiments were conducted in the daylight period. The experiments were conducted in accordance with the European Communities Council Directive of 24 Nov. 1985 (86/609/EEC, according to the control and approval of the Animal Welfare Committee of the Institute of Experimental Medicine).
Rats were forced to swim twice as described in the following publication: Porsolt et al., 1978. On the first day every rat was placed in a 15 cm wide, 35 cm high glass cylinder filled with water to 30 cm. […] Behaviour of the animals was recorded by a video camera located 2 meters from the cylinders. The following behaviour factors were recorded: struggling (the animal tries to leave the cylinder by climbing on the walls); swimming (swimming round in the cylinder) and floating (the animal makes only the movements necessary to keep its head above the wafer). […]

[8] = after 60 minute reperfusion, vs control

Compound | EC50 [1] | EC50 [2] | EC50 (U87 (human glioma)) | EC50 [5] | EC50 [6] | EC50 [7] | also measured
Cc1cccc(NC(c2ccc(C(F)(F)F)cc2F)c2ccc3cccnc3c2O)n1 (stereo not shown) [7-((6-methylpyridin-2-ylamino)(2-fluoro-4-(trifluoromethyl)phenyl)methyl)quinolin-8-ol] | 1000 nM | 1500 nM | 2500 nM | – | – | – | –
Cc1cccc(NC(c2ccc([N+](=O)[O-])cc2)c2ccc3cccnc3c2O)n1 (stereo not shown) [Example 1, 7-((6-methylpyridin-2-ylamino) (4-nitrophenyl)methyl)quinolin-8-ol] | 500 nM | 1000 nM | 2500 nM | 1000 nM | 10000 nM | – | inhibition of 72 kDa gelatinase (MMP-2) [3]: completely inhibited; inhibition of 92 kDa gelatinase (MMP-9) [4]: inhibited the 92 kDa gelatinase (MMP-9) as well, hut to a less extent than the 72 kDa gelatinase; LVEDP (left ventricular end diastolic pressure) (Lewis rats; [8]): did not show changing values between the groups; LVSP (left ventricular systolic pressure) (Lewis rats; [8]): significantly (P=0.05) higher; peak positive dP/dt (Lewis rats; [8]): significantly (P=0.05) higher; systolic functional recovery (Lewis rats; [8]): significantly better; reperfusion injury after heart transplantation (Lewis rats; injection at start of reperfusion): Reduces Reperfusion Injury; systolic heart function curves (Lewis rats; vs group treated with the carrier (FIG. 1a, 1b)): significant drift to the left
CCOC(=O)c1ccc(NC(c2ccc([N+](=O)[O-])cc2)c2ccc3cccnc3c2O)cc1 (stereo not shown) [Example 2, Ethyl 4-((8-hydroxyquinolin-7-yl) (4-nitrophenyl)methylamino)benzoate] | 2500 nM | – | 4000 nM | 1000 nM | – | 5000 nM | –
Oc1c(C(Nc2ccc(C(F)(F)F)cc2)c2ccccn2)ccc2cccnc12 (stereo not shown) [Example 5, 7-[pyridin-2-yl-(4-trifluoromethyl-phenylamino)-methyl]-quinolin-8-ol] | 2000 nM | – | 3500 nM | 100 nM | – | 2000 nM | –
Cc1cccc(NC(c2ccc(C(F)(F)F)cc2)c2ccc3cccnc3c2O)n1 (stereo not shown) [Example 7, 7-[(6-methyl-pyridin-2-ylamino)-(4-trifluoromethyl-phenyl)-methyl]-quinolin-8-ol] | 500 nM | 15000 nM | – | 300 nM | – | 5000 nM | –
Cc1ccnc(NC(c2ccc(C(F)(F)F)cc2)c2ccc3cccnc3c2O)c1 (stereo not shown) [Example 8, 7-[(4-methyl-pyridin-2-ylamino)-(4-trifluoromethylphenyl)-methyl]-quinolin-8-ol] | – | 8000 nM | – | – | 10000 nM | – | –
Cc1ccnc(NC(c2ccc(C(F)(F)F)cc2)c2ccc3cccnc3c2O)n1 (stereo not shown) [Example 10, 7-((4-methylpyrimidin-2-ylamino) (4-(trifluoromethyl)phenyl)methyl)quinolin-8-ol] | 1000 nM | 7000 nM | 5000 nM | – | 5000 nM | – | –
Cc1ccnc(NC(c2ccccc2O)c2ccc3cccnc3c2O)n1 (stereo not shown) [Example 11, 7-[(2-hydroxyphenyl)-(4-methyl-pyrimidin-2-ylamino)-methyl]-quinolin-8-ol] | 1000 nM | 5000 nM | – | – | – | – | –
Cc1cccc(NC(c2ccc(F)c(F)c2)c2ccc3cccnc3c2O)n1 (stereo not shown) [Example 16, 7-((6-methylpyridin-2-ylamino) (3,4-difluorophenyl)methyl)quinolin-8-ol] | 5000 nM | 1500 nM | 2500 nM | – | – | – | –
CN(C)CCCN1c2ccccc2CCc2ccccc21 [impipramine, imipramine] | – | – | – | – | – | – | floating in forced swimming test (Wistar rats): reliably reduced floating
